For 20 compounds, IC50 results are on record in patent US20170280720A1, “ARGININE […] INHIBITORS AND USES THEREOF” (EPIZYME, INC., priority 2014, published 2017).

The target of one assay is PRMT5 (Homo sapiens, UniProt O14744). As to the kind of experiment: PRMT5 IC50 (Table 2; no method described). In kind it is biochemical. As to conditions: read-out: PRMT5_ IC50.
The target of a further assay is T1, Human CARM1 (PRMT4) (Homo sapiens, UniProt Q86X55).
T1 construct: Flag-CARM1-His; made in house; host or cells: HEK 293F cells (BacMam baculovirus, pFastBacMam)
T1 sequence (Q86X55 2-585 isoform Q86X55-1): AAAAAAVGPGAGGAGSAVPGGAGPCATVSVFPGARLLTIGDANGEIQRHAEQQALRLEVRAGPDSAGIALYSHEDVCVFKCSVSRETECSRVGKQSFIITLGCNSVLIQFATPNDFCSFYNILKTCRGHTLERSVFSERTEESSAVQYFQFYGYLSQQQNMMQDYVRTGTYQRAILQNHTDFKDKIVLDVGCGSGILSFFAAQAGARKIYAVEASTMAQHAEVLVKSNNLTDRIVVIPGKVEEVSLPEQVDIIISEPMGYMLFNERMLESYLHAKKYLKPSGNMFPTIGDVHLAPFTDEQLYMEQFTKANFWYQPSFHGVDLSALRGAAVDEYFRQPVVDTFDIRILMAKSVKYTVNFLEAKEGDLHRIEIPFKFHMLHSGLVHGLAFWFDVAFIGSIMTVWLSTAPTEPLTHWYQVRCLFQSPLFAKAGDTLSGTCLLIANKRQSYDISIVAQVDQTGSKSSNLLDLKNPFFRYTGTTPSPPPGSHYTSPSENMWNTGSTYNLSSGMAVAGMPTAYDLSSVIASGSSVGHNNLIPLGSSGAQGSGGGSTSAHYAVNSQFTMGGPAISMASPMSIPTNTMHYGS
As to the kind of experiment: CARM1 biochemical assay (3H-SAM Flashplate, peptide substrate). The settings on record: read-out: CARM1_ IC50. In outline: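 FLAG/His-tagged human CARM1 (isoform 1, Δ539-561, baculovirus-expressed), 0.25 nM, preincubated 30 min at room temperature with compound (2% DMSO) in 20 mM Bicine pH 7.6, then reacted with 30 nM 3H-SAM and 250 nM biotinylated H3 16-30 peptide (R26 monomethyl). Stopped with 300 uM cold SAM; labelled peptide captured on streptavidin Flashplate; % inhibition versus DMSO and 1 mM SAH controls fitted to a 4- or 3-parameter curve.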

Chain of PRMT5 (O14744 whole entry, species assumed): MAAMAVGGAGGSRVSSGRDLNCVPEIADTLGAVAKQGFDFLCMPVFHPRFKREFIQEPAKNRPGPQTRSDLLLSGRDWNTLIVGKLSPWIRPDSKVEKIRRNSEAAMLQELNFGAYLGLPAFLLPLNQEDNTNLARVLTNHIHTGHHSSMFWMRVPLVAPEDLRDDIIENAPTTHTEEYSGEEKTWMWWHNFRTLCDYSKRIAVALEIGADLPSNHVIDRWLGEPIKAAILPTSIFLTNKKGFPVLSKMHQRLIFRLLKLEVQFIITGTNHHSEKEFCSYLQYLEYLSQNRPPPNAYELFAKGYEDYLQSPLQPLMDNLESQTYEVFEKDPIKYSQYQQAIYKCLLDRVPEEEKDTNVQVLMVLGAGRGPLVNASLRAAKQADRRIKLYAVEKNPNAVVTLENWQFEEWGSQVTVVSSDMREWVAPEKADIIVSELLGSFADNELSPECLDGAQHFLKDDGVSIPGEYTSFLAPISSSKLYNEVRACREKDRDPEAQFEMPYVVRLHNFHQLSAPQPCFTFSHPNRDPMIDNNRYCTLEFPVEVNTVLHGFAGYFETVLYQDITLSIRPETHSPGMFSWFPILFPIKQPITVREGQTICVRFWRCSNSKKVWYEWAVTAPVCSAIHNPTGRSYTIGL
Chain of PRMT5 (Q9BQA1 whole entry partner, species assumed): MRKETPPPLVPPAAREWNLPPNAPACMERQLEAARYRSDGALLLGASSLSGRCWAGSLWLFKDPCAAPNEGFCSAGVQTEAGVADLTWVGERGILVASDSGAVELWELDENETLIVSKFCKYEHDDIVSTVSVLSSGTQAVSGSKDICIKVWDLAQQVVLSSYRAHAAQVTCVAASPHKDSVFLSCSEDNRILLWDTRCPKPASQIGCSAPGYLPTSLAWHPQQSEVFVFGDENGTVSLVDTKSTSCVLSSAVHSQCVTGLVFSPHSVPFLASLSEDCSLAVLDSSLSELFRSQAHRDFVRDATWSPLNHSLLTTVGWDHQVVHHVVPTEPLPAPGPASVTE

With `COc1ccc(Cn2cnc3ccc(-c4ccc(CNCCN)cc4)cc32)cc1` [Compound 132], the IC50 (in general, the concentration that inhibits the measured activity by half) at PRMT5 was determined as 0.0572 µM; at Human CARM1 (PRMT4), 7.21 µM.

On to `CC(C)n1cnc2ccc(-c3ccc(CNCCN)cc3)cc21` [Compound 166], for which the IC50 was 0.404 µM at PRMT5 and 31.7 µM on Human CARM1 (PRMT4).

For the compound `Cc1c(C(=O)NCc2ccccc2)cc(-c2cccc(CN(C)CCN)c2)c2cn[nH]c12` [Compound 15], the IC50 came to 10.8 µM at PRMT5 and 0.973 µM at Human CARM1 (PRMT4).

As for `Cc1cccc(CCn2cnc3ccc(-c4ccc(CNCCN)cc4)cc32)c1` [Compound 143], the values for the IC50 on PRMT5 and on Human CARM1 (PRMT4) were 0.281 µM and 5.62 µM, respectively.

Turning to `Cc1ccc(-n2cnc3cc(-c4ccc(CNCCN)cc4)ccc32)cc1` [Compound 131], the IC50 at PRMT5 was determined as 0.371 µM; on Human CARM1 (PRMT4) it was 2.84 µM.

For `CS(=O)(=O)N1CCC(Cn2cnc3ccc(-c4ccc(CNCCN)cc4)cc32)CC1` [Compound 129], the IC50 at PRMT5 turned out to be 0.122 µM; on Human CARM1 (PRMT4), 12.9 µM.

For the compound `NCCNCc1ccc(-c2ccc3ncn(C4CCNCC4)c3c2)cc1` [Compound 157], the IC50 on PRMT5 was 0.418 µM; at Human CARM1 (PRMT4) it was 4.6 µM.

Regarding `N#Cc1cccc(Cn2cnc3ccc(-c4ccc(CNCCN)cc4)cc32)c1` [Compound 145], the results for the IC50 at PRMT5 and at Human CARM1 (PRMT4) were 0.0799 µM and 8 µM, respectively.

As to `CNCCN(C)Cc1cccc(-c2ccc3c(c2)ncn3C(C)C)c1` [Compound 36], the IC50 came to 50 µM at PRMT5 and 15.8 µM at Human CARM1 (PRMT4).

Take `CC(C)n1ncc2c(C(=O)N(C)Cc3ccccc3)cc(-c3cccc(CN(C)CCN)c3)nc21` [Compound 31]: the IC50 came to 0.858 µM at PRMT5 and 0.0217 µM at Human CARM1 (PRMT4).

For the compound `COc1cccc(Cc2nc3ccc(-c4ccc(CNCCN)cc4)cc3n2C(C)C)c1` [Compound 135], the IC50 on PRMT5 is 0.169 µM; on Human CARM1 (PRMT4) it was 4.92 µM.

For `CC(C)n1ncc2c(C(=O)N[C@@H](C)c3ccccc3)cc(-c3cccc(CN(C)CCN)c3)nc21` [Compound 136], the concentration for half-maximal inhibition (IC50) is 50 µM at PRMT5 and 0.0455 µM on Human CARM1 (PRMT4).

As to `NCCNCc1ccc(-c2cnc3c(c2)CCC(=O)N3)cc1` [Compound 156], the IC50 on PRMT5 was found to be 0.338 µM; on Human CARM1 (PRMT4), 2.61 µM.

As to `CNCCN(C)Cc1cccc(-c2cc(C(=O)N[C@@H](C)c3ccccc3)c3cnn(C(C)C)c3n2)c1` [Compound 44], the IC50 on PRMT5 came out at 50 µM; on Human CARM1 (PRMT4), 0.0186 µM.

`CC(C)n1ncc2c(C(=O)N[C@@H](C)c3ccccc3)cc(-c3cccc(CNCCN)c3)nc21` [Compound 160]: the IC50 at PRMT5 turned out to be 35.9 µM; at Human CARM1 (PRMT4) it was 0.028 µM.

As to `CNCCN(C)Cc1cccc(-c2cc(C(=O)N(C)Cc3ccccc3)c3cnn(C(C)C)c3n2)c1` [Compound 24], the IC50 at PRMT5 is 0.849 µM; at Human CARM1 (PRMT4) it was 0.0713 µM.

As to `Cc1cc2cc(-c3ccc(CNCCN)cc3)ccc2[nH]1` [Compound 141], the figures for the IC50 on PRMT5 and at Human CARM1 (PRMT4) were 0.327 µM and 5.81 µM, respectively.

Consider `COc1cccc(CNC(=O)c2cncc(-c3ccc(CNCCN)cc3)c2)c1` [Compound 356], for which the figures for the IC50 on PRMT5 and at Human CARM1 (PRMT4) were 0.377 µM and 24.3 µM, respectively.

For the compound `CC(C)n1ncc2c(C(=O)N3CCc4ccccc4C3)cc(-c3cccc(CN(C)CCN)c3)nc21` [Compound 23], the IC50 on PRMT5 worked out at 11.6 µM; on Human CARM1 (PRMT4) it was 0.185 µM.

As for `COc1ccc(Cn2cnc3ccc(-c4ccc(CN(C)CCN)cc4)cc32)cc1` [Compound 16], the IC50 on PRMT5 came out at 5.69 µM; on Human CARM1 (PRMT4) it was 4.08 µM.
